The values below come from publication PMC6720008, “A Novel Peptide Ameliorates LPS-Induced Intestinal Inflammation and Mucosal Barrier Damage via Its Antioxidant and Antiendotoxin Effects” (International Journal of Molecular Sciences, 2019).

Data set [1] in a line: In vitro LPS neutralization, chromogenic end-point TAL assay. As to conditions: LPS 1.0 U/mL, peptide 0 to 64 μg/mL, 37 °C 15 min, absorbance 540 nm, three biological replicates. The class given is biochemical. Here is the method: Figure 9 LPS neutralization activity of LTP in vitro and in vivo. (A) The LPS concentration in mouse plasma. (B) In-vitro LPS neutralization by LTP. LPS neutralization activity of LTP, LL-37, TP5, and PMB were determined using the chromogenic in vitro TAL assay. Data are presented as the mean value ± standard error from three biological replicates. *: p ≤ 0.05, ****: p ≤ 0.0001.
The neutralization of LPS by the peptides was detected using a quantitative Chromogenic End-point Tachypleus Amebocyte Lysate (CE TAL) assay with the QCL-1000 kit (Xiamen, China). Experiments were carried out according to the institutional guidelines. A constant concentration of LPS (1.0 U/mL final concentration) was incubated with different concentrations of polymyxin B (PMB) or the peptides (0 to 64 μg/mL final concentration) at 37 °C for 15 min in the wells of pyrogenic sterile microliters plates. Subsequently, the mixtures were incubated at 37 °C for 6 min in the presence of TAL assay reagent, after which the absorbances were measured at 540 nm.

Data set [2] is described as follows: Ex vivo stability in plasma. The class given is in vitro ADME, rat. Here is the method:
Figure 2 The mean plasma concentrations of LL-37, TP5, and LTP over times. The concentration of each target peptide in plasma in vitro at the selected times was quantified by HPLC.
Rat plasma was collected from healthy adult rats by centrifugation of whole blood samples. LL-37, TP5, and LTP were directly added to rat plasma (10 μg/mL), after which the plasma samples were incubated in a 37 °C water bath. At different times, the samples were collected into pre-chilled tubes which contained 1 mL of acidic acetone (hydrochloric acid/acetone/H2O, 1:40:5, by volume). Subsequently, the mixture was centrifuged at 2 × 10^4 rpm at 4 °C for 20 min. The precipitates were dried in vacuo, after which the dried precipitates were dissolved in 0.5 mL of 1 M acetic acid. The peptide analysis was carried out according to the protocol for the study of TP5 using HPLC [64]. The half-lives of the peptides were calculated by a logarithm-linear regression analysis of the peptide concentrations.

For data set [3], the system named is RAW264.7 macrophage cells. To be noted: CCK-8, 24 h or 72 h.
Protocol: RAW264.7 cells were pre-seeded in DMEM medium overnight. The cells were treated with various concentrations of peptides or without peptides at 37 °C and 5% CO2 for 24 h (A) or 72 h (B). They were incubated with CCK-8 solution for 4 h, and then, they were measured at 450 nm. Data are given as the mean value ± standard error from eight biological replicates. *: p ≤ 0.05, **: p ≤ 0.01, ***: p ≤ 0.001.
The murine macrophage cell line RAW264.7 was purchased from the Shanghai Cell Bank, the Institute of Cell Biology, China Academy of Sciences (Shanghai, China). RAW264.7 cells were cultured in Dulbecco’s modified Eagle’s medium (DMEM; Hyclone, Logan, UT, USA) supplemented with 10% (v/v) foetal bovine serum (Bioscience) and 1% (v/v) penicillin/streptomycin (Hyclone) in a 37 °C humidified incubator containing 5% CO2.
The viability of peptide-treated RAW264.7 cells was measured using the Cell Counting Kit-8 (CCK-8) Assay Kit (Dojindo, Japan) [63]. The cells were pre-seeded on a 96-well plate at a density of 3 × 10^4 cells/mL overnight. […] The absorbance at 450 nm was measured with a microplate reader. Cell viability was calculated as: Cell viability (%) = (OD450 (sample)/OD450(control)) × 100%(1) where OD450 (sample) is the absorbance at 450 nm of the cells with peptides treated, and OD450 (control) is the absorbance at 450 nm of the cells without peptides treated.
Setting [4] is: rat plasma, peptide 10 μg/mL, 37 °C water bath, HPLC, logarithm-linear regression, mean ± standard error, three biological replicates, read-out: t1/2.

Read-outs that look alike come from different tables or passages of the source. Ends that are not written are not given here.

Consider polymyxin B [PMB], for which the “50% binding rate value (LPS neutralization)” value in data set [1] came out at 1 µg/mL.

Molecule IGKEFKRIVQRIKDFLRNLVPRTERKDVY [LTP] came in with a half-life in plasma t1/2 of 4 h. The half-life at 10 μg/mL in data set [2] (setting [4]) stood at 4 ± 0.919 h. Moreover, in data set [3] (eight biological replicates), the “cytotoxicity on RAW264.7 cells compared with the parental peptides” value is “lower cytotoxicity than LL-37 and TP5”. Also, the “cytotoxicity towards RAW264.7 cells” value in data set [3] (highest concentration of 60 μg/mL, 37 °C, 5% CO2, absorbance 450 nm, mean of eight biological replicates) is given as “no significant cytotoxicity”.

For RKDVY [TP5, Thymopentin], in data set [2] (setting [4]), the half-life at 10 μg/mL was 0.022 ± 0.004 h. Besides, in data set [2] (rat plasma, peptide 10 μg/mL, 37 °C, HPLC, three biological replicates, read-out: decrease of plasma concentration after incubation for 5 min), the metabolised at 5 min, 10 μg/mL amounted to 95%.

For the molecule `CC[C@H](C)[C@H](NC(=O)[C@H](CCCCN)NC(=O)[C@H](CCC(=O)O)NC(=O)[C@H](CCCCN)NC(=O)[C@H](CO)NC(=O)[C@H](CCCCN)NC(=O)[C@H](CCCNC(=N)N)NC(=O)[C@H](Cc1ccccc1)NC(=O)[C@H](Cc1ccccc1)NC(=O)[C@H](CC(=O)O)NC(=O)CNC(=O)[C@H](CC(C)C)NC(=O)[C@@H](N)CC(C)C)C(=O)NCC(=O)N[C@@H](CCCCN)C(=O)N[C@@H](CCC(=O)O)C(=O)N[C@@H](Cc1ccccc1)C(=O)N[C@@H](CCCCN)C(=O)N[C@@H](CCCNC(=N)N)C(=O)N[C@H](C(=O)N[C@H](C(=O)N[C@@H](CCC(N)=O)C(=O)N[C@@H](CCCNC(=N)N)C(=O)N[C@H](C(=O)N[C@@H](CCCCN)C(=O)N[C@@H](CC(=O)O)C(=O)N[C@@H](Cc1ccccc1)C(=O)N[C@@H](CC(C)C)C(=O)N[C@@H](CCCNC(=N)N)C(=O)N[C@@H](CC(N)=O)C(=O)N[C@@H](CC(C)C)C(=O)N[C@H](C(=O)N1CCC[C@H]1C(=O)N[C@@H](CCCNC(=N)N)C(=O)N[C@H](C(=O)N[C@@H](CCC(=O)O)C(=O)N[C@@H](CO)C(=O)O)[C@@H](C)O)C(C)C)[C@@H](C)CC)C(C)C)[C@@H](C)CC` [LL-37], the half-life at 10 μg/mL in data set [2] (rat, plasma) is 4.04 ± 0.752 h.
